Data on 16 compounds can be found in patent US20230114241A1, “METHODS OF TREATING EPILEPSY USING THE SAME” (Trevena, Inc., priority 2019, published 2023).

Chain of human sphingosine-1-phosphate receptor 1 (S1P1) (P21453 whole entry): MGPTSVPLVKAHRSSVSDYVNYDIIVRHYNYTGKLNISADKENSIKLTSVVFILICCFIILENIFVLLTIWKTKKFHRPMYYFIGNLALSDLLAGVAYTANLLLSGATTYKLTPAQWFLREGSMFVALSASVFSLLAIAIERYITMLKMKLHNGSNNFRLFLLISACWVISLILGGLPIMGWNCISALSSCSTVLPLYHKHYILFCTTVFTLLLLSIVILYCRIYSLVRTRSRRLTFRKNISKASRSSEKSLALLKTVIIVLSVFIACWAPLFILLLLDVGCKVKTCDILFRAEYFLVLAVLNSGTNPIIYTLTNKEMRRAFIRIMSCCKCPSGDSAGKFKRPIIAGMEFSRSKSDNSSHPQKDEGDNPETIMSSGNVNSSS

For the first assay, the target named is human sphingosine-1-phosphate receptor 1 (S1P1) (Homo sapiens, UniProt P21453). Put plainly: Inhibition of cAMP production (HTRF cAMP HiRange), S1P1 CHO-K1 cells. The format is cell-based. Particulars: inhibition of cAMP production, S1P1; read-out: hS1P1 CAMP pEC50 (converted). The gist of the method:
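Intracellular cAMP changes read by TR-FRET (HTRF HiRange, 1 h room temperature) after 30 min compound exposure at 37 °C. Cells: overnight-plated CHO-K1 stably expressing tagged human S1P1 with EA-β-arrestin2. Responses normalized to fingolimod.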
In the case of `N#Cc1cc(-c2nc(-c3ccc4sc(N)nc4c3)no2)ccc1NCC1CC1` [Compound 440, 5-(3-(2-aminobenzo[d]thiazol-5-yl)-1,2,4-oxadiazol-5-yl)-2-((cyclopropylmethyl)amino)benzonitrile], the EC50 was less than 316 nM.

Regarding `CCC1(CC)CC(=O)c2cc(-c3nc(-c4ccc5sc(N)nc5c4)no3)ccc2O1` [Compound 446, 6-(3-(2-aminobenzo [d]thiazol-5-yl)-1,2,4-oxadiazol-5-yl)-2,2-diethylchroman-4-one], the EC50 was greater than 316 nM.

For `CNc1ccccc1-c1coc(-c2ccc3c(c2)nnn3C(C)C)n1` [Compound 587, N-methyl-2-{2-[1-(propan-2-yl)-1H-1,2,3-benzotriazol-5-yl]-1,3-oxazol-4-yl}aniline], the EC50 was greater than 316 nM.

Take `COc1ncccc1-c1nc(-c2ccc3c(c2)nnn3C(C)C)no1` [Compound 607, 3-(1-isopropyl-1H-benzo[d][1,2,3]triazol-5-yl)-5-(2-methoxy-pyridin-3-yl)-1,2,4-oxadiazole]: the EC50 is less than 316 nM.

Still in this assay, the particulars now being: inhibition of cAMP production; potency; read-out: hS1P1 CAMP pEC50 (converted).
Regarding `Cc1ccc(-c2noc(-c3ccc4c(c3)nnn4C3CC3)n2)cn1` [Compound 87, 1-cyclopropyl-5-[3-(6-methylpyridin-3-yl)-1,2,4-oxadiazol-5-yl]-1H-1,2,3-benzotriazole], the EC50 was greater than 316 nM.

Consider `N#Cc1cc(-c2nnc(-c3ccc4[nH]ncc4c3)o2)ccc1NCC(F)F` [Compound 354, 2-[(2,2-difluoro-ethyl)amino]-5-[5-(1H-indazol-5-yl)-l,3,4-oxadiazol-2-yl]benzonitrile], for which the EC50 was less than 316 nM.

As to `C=CCNc1ccc(-c2nc(-c3ccc4[nH]ccc4c3)no2)cc1C#N` [Compound 208, 5-(3-(1H-indol-5-yl)-1,2,4-oxadiazol-5-yl)-2-(allylamino) benzonitrile], the EC50 is less than 316 nM.

Regarding `O=C1CC2(CCOCC2)Oc2ccc(-c3nc(-c4cccnc4)no3)cc21` [Compound 214, 6-[3-(pyridin-3-yl)-1,2,4-oxadiazol-5-yl]-3,4-dihydrospiro[1-benzopyran-2,4′-oxane]-4-one], the EC50 is greater than 316 nM.

With `CCC1(CC)CC(=O)c2cc(-c3nc(-c4ccncc4C(F)(F)F)no3)ccc2O1` [Compound 313, 2,2-diethyl-6-(3-(3-(trifluoromethyl)pyridin-4-yl)-1,2,4-oxadiazol-5-yl)chroman-4-one], the EC50 was less than 316 nM.

For the compound `Brc1ccccc1-c1nc(-c2ccc3c(c2)nnn3CC2CC2)no1` [Compound 98, 5-(2-bromophenyl)-3-(1-(cyclopropylmethyl)-1H-benzo[d][1,2,3]triazol-5-yl)-1,2,4-oxadiazole], the EC50 is greater than 316 nM.

For the compound `CC(C)n1ncc2cc(-c3nc(-c4ccccc4Br)no3)ccc21` [Compound 332, 3-(2-bromophenyl)-5-(1-isopropyl-1H-indazol-5-yl)-1,2,4-oxadiazole], the EC50 was less than 316 nM.

Regarding `Cc1ccc(-c2noc(-c3ccc4c(c3)nnn4C3CCCCC3)n2)cc1` [Compound 117, 1-cyclohexyl-5-[3-(4-methylphenyl)-1,2,4-oxadiazol-5-yl]-1H-1,2,3-benzotriazole], the EC50 is greater than 316 nM.

On to `CC(C)n1ncc2cc(-c3nc(-c4ccccc4OC(F)(F)F)no3)ccc21` [Compound 331, 5-(1-isopropyl-1H-indazol-5-yl)-3-(2-(trifluoro-methoxy)phenyl)-1,2,4-oxadiazole], for which the EC50 is less than 316 nM.

Regarding `FC(F)(F)c1cc(Br)ccc1-c1noc(-c2ccc3c(c2)nnn3C2CCCC2)n1` [Compound 114, 5-{3-[4-bromo-2-(trifluoromethyl)phenyl]-1,2,4-oxadiazol-5-yl}-1-cyclopentyl-1H-1,2,3-benzotriazole], the EC50 was greater than 316 nM.

Consider `Cc1ncccc1-c1nc(-c2ccc3c(c2)nnn3C(C)C)no1` [Compound 194, 3-(1-isopropyl-1H-benzo[d][1,2,3]triazol-5-yl)-5-(2-methyl-pyridin-3-yl)-1,2,4-oxadiazole], for which the EC50 is greater than 316 nM.

Regarding `COc1cccc(-c2cnc(-c3ccc4c(c3)nnn4C(C)C)s2)c1` [Compound 108, 2-(1-isopropyl-1H-benzo[d][1,2,3]triazol-5-yl)-5-(3-methoxy-phenyl)thiazole], the EC50 is less than 316 nM.
